System: Pseudomonas aeruginosa
Experiment: agar dilution method, MIC
Assay type: cell-based
Settings: read-out: MIC (minimum inhibitory concentration)
Experimental: (§1) Petri dishes 5.5 cm in diameter were charged with 8.7 ml freshly prepared Mueller-Hinton agar (Merck, Ref. 1.05437 or Wilkins-Chalgren agar boillon (sic), Oxoid, Ref. CM 643, supplemented with 10 g agar-agar/liter) kept liquid at 50° C., to which the various concentrations of the diluted samples were added in 3.3% (V/V)=0.3 ml. Mueller-Hinton agar that contained 3% Tween80 (Merck, Ref. 8.22 187) was used for the test germ Malassezia furfur.
(§2) 2.6 ml of the 3.3% samples were diluted with ethanol (96%; Merck, Ref. 1.00971). The further test concentrations of the particular dilution series, which were prepared in the form of geometric series, were prepared by progressive 2:1 dilution with ethanol (96%).
(§3) The concentrations indicated below relate to the pure substance and have been converted to ppm. Two agar plates were poured per test concentration and nutrient medium.
(§4) The MIC (minimum inhibitory concentration) was regarded as the lowest concentration of active compound at which macroscopically there is no growth. Minimal, barely visible growth or few small individual colonies were evaluated as inhibition.
(§5) The MIC values of various (R/S)-4-methyl-4-aryl-2-pentanols were determined in accordance with the general test conditions described under 2.1. (c.f. Table 3; MIC values for (R/S[lacuna]-4-methyl-4-phenyl-2-pentanol, for (R/S)-4-methyl-4-p-tolyl-2-pentanol, (R/S)-4-methyl-4-p-cumenyl-2-pentanol and (R/S)-4-methyl-4-(4-n-butylphenyl)-2-pentanol).

Row | Compound | MIC [µg/mL]
1 | CC(O)CC(C)(C)c1ccccc1 (racemic) [Formula 2, (R,S)-4-methyl-4-phenyl-2-pentanol] | > 1100
2 | Cc1ccc(C(C)(C)CC(C)O)cc1 (racemic) [Formula 3, (R,S)-4-methyl-4-p-tolyl-2-pentanol] | > 1100
3 | CC(O)CC(C)(C)c1ccc(C(C)C)cc1 (racemic) [Formula 4, (R,S)-4-methyl-4-p-cumenyl-2-pentanol] | > 1100
4 | CCCCc1ccc(C(C)(C)CC(C)O)cc1 (racemic) [Formula 5, (R,S)-4-methyl-4-(4-n-butylphenyl)-2-pentanol] | > 1100

System: Escherichia coli
Experiment: agar dilution method, MIC
Assay type: cell-based
Settings: read-out: MIC (minimum inhibitory concentration)
Experimental: as §1, §2, §3, §4, §5

Row | Compound | MIC [µg/mL]
5 | CC(O)CC(C)(C)c1ccccc1 (racemic) [Formula 2, (R,S)-4-methyl-4-phenyl-2-pentanol] | > 1100
6 | Cc1ccc(C(C)(C)CC(C)O)cc1 (racemic) [Formula 3, (R,S)-4-methyl-4-p-tolyl-2-pentanol] | > 1100
7 | CC(O)CC(C)(C)c1ccc(C(C)C)cc1 (racemic) [Formula 4, (R,S)-4-methyl-4-p-cumenyl-2-pentanol] | > 1100
8 | CCCCc1ccc(C(C)(C)CC(C)O)cc1 (racemic) [Formula 5, (R,S)-4-methyl-4-(4-n-butylphenyl)-2-pentanol] | > 1100

System: glycolysis
Experiment: not given
Settings: known from J. Dental Res. 40,384 (1961); cariostatic; cited from earlier work

Row | Compound | glycolysis-inhibiting action (in words)
9 | CC(O)CC(C)(C)c1ccccc1 (racemic) [Formula 2, (R,S)-4-methyl-4-phenyl-2-pentanol] | a certain glycolysis-inhibiting action

System: Brevibacterium epidermidis
Experiment: agar dilution method, MIC
Assay type: cell-based
Settings: ATCC35514; Brevibacterium epidermidis ATCC 35514; Mueller-Hinton agar, aerobic, 18 h at 36° C.; read-out: MIC (minimum inhibitory concentration)
Experimental: as §1, §2, §3
(§6) After solidification and drying (approximately 1 h at 37° C.), the test plates were inoculated in point form with, in each case, 1 μl of the test germ suspensions listed in the examples below. To check purity and identity, the bacteria (Brevibacterium epidermidis, Corynebakterium (sic) xerosis, Staphylococcus aureus; Staphylococcus epidermidis) which grow aerobically, were [lacuna] on Columbia blood agar (BioMérieux, Ref. 43049). The mould Aspergillus niger, the yeast Candida albicans and the skin fungus Trichophyton mentagrophytes were cultivated on Sabouraud agar (BioMérieux, Ref. 43555). Malassezia furfur was cultured on Sabourad-HLT agar with inhibitors (addition of Tween80: 1%; lecithin: 0.3%; histidine: 0.1%; Merck, Ref. 1.18368). Propionibacterium acnes was cultivated on Schaedler agar (BioMérieux, Ref. 43273). Further data on the test germs can be taken from Table 1.
(§7) The preparation of the test germ suspensions of the bacterial germs that grow aerobically was carried out by incubation of Mueller-Hinton broth (Merck, Ref. 1.10293) which had been inoculated with a few individual colonies of the relevant test germs, at 36° C. After a distinct turbidity had been obtained, sterile nutrient broth was added to the suspensions in such an amount that the turbidity thereof corresponded to McFarland Standard 0.5 (approx. 1.5×10^8 CFU/ml).
(§8) All test germ suspensions with the exception of Propionibacterium acnes were diluted again 1:10 with sterile broth and the germ count thereof was determined by the surface method using a Spiralometer (results: see Table 1).
as §4, §5

Row | Compound | MIC [µg/mL]
10 | CC(O)CC(C)(C)c1ccccc1 (racemic) [Formula 2, (R,S)-4-methyl-4-phenyl-2-pentanol] | 1100
11 | Cc1ccc(C(C)(C)CC(C)O)cc1 (racemic) [Formula 3, (R,S)-4-methyl-4-p-tolyl-2-pentanol] | 550
12 | CC(O)CC(C)(C)c1ccc(C(C)C)cc1 (racemic) [Formula 4, (R,S)-4-methyl-4-p-cumenyl-2-pentanol] | 138
13 | CCCCc1ccc(C(C)(C)CC(C)O)cc1 (racemic) [Formula 5, (R,S)-4-methyl-4-(4-n-butylphenyl)-2-pentanol] | 550

System: Corynebacterium xerosis
Experiment: agar dilution method, MIC
Assay type: cell-based
Settings: ATCC7711; Corynebacterium xerosis ATCC 7711; Mueller-Hinton agar, aerobic, 18 h at 36° C.; read-out: MIC (minimum inhibitory concentration)
Experimental: as §1, §2, §3, §6, §7, §8, §4, §5

Row | Compound | MIC [µg/mL]
14 | CC(O)CC(C)(C)c1ccccc1 (racemic) [Formula 2, (R,S)-4-methyl-4-phenyl-2-pentanol] | 1100
15 | Cc1ccc(C(C)(C)CC(C)O)cc1 (racemic) [Formula 3, (R,S)-4-methyl-4-p-tolyl-2-pentanol] | 275
16 | CC(O)CC(C)(C)c1ccc(C(C)C)cc1 (racemic) [Formula 4, (R,S)-4-methyl-4-p-cumenyl-2-pentanol] | 69
17 | CCCCc1ccc(C(C)(C)CC(C)O)cc1 (racemic) [Formula 5, (R,S)-4-methyl-4-(4-n-butylphenyl)-2-pentanol] | 69

System: Staphylococcus epidermidis
Experiment: agar dilution method, MIC
Assay type: cell-based
Settings: ATCC12228; Staphylococcus epidermidis ATCC 12228; Mueller-Hinton agar, aerobic, 18 h at 36° C.; read-out: MIC (minimum inhibitory concentration)
Experimental: as §1, §2, §3, §6, §7, §8, §4, §5

Row | Compound | MIC [µg/mL]
18 | CC(O)CC(C)(C)c1ccccc1 (racemic) [Formula 2, (R,S)-4-methyl-4-phenyl-2-pentanol] | 1100
19 | Cc1ccc(C(C)(C)CC(C)O)cc1 (racemic) [Formula 3, (R,S)-4-methyl-4-p-tolyl-2-pentanol] | 550
20 | CC(O)CC(C)(C)c1ccc(C(C)C)cc1 (racemic) [Formula 4, (R,S)-4-methyl-4-p-cumenyl-2-pentanol] | 138
21 | CCCCc1ccc(C(C)(C)CC(C)O)cc1 (racemic) [Formula 5, (R,S)-4-methyl-4-(4-n-butylphenyl)-2-pentanol] | 1100

System: Propionibacterium acnes
Experiment: agar dilution method, MIC
Assay type: cell-based
Settings: Cutibacterium acnes, ATCC11829; Propionibacterium acnes ATCC 11829; Wilkins-Chalgren agar, anaerobic, 72 h at 36° C.; read-out: MIC (minimum inhibitory concentration)
Experimental: as §1, §2, §3, §6
(§9) For preparation of the other test germ suspensions, the test strains were cultured on the abovementioned solid nutrient medium, harvested using sterile swabs and taken up or diluted in such an amount of Mueller-Hinton broth that the turbidity of the suspensions corresponded to McFarland standard 0.5.
as §4, §5

Row | Compound | MIC [µg/mL]
22 | CC(O)CC(C)(C)c1ccccc1 (racemic) [Formula 2, (R,S)-4-methyl-4-phenyl-2-pentanol] | 1100
23 | Cc1ccc(C(C)(C)CC(C)O)cc1 (racemic) [Formula 3, (R,S)-4-methyl-4-p-tolyl-2-pentanol] | 550
24 | CC(O)CC(C)(C)c1ccc(C(C)C)cc1 (racemic) [Formula 4, (R,S)-4-methyl-4-p-cumenyl-2-pentanol] | 138
25 | CCCCc1ccc(C(C)(C)CC(C)O)cc1 (racemic) [Formula 5, (R,S)-4-methyl-4-(4-n-butylphenyl)-2-pentanol] | > 1100

Same assay, conditions: text comment on Table 3

Row | Compound | activity against Propionibacterium acnes (in words)
26 | CC(O)CC(C)(C)c1ccccc1 (racemic) [Formula 2, (R,S)-4-methyl-4-phenyl-2-pentanol] | an activity can also be observed
27 | Cc1ccc(C(C)(C)CC(C)O)cc1 (racemic) [Formula 3, (R,S)-4-methyl-4-p-tolyl-2-pentanol] | an activity can also be observed
28 | CCCCc1ccc(C(C)(C)CC(C)O)cc1 (racemic) [Formula 5, (R,S)-4-methyl-4-(4-n-butylphenyl)-2-pentanol] | an activity can also be observed

System: Trichophyton mentagrophytes
Experiment: agar dilution method, MIC
Assay type: cell-based
Settings: CBS26379; Trichophyton mentagrophytes CBS 26379; Mueller-Hinton agar, aerobic, 72 h at 30° C.; read-out: MIC (minimum inhibitory concentration)
Experimental: as §1, §2, §3, §6, §9, §8, §4, §5

Row | Compound | MIC [µg/mL]
29 | CC(O)CC(C)(C)c1ccccc1 (racemic) [Formula 2, (R,S)-4-methyl-4-phenyl-2-pentanol] | 550
30 | Cc1ccc(C(C)(C)CC(C)O)cc1 (racemic) [Formula 3, (R,S)-4-methyl-4-p-tolyl-2-pentanol] | 138
31 | CC(O)CC(C)(C)c1ccc(C(C)C)cc1 (racemic) [Formula 4, (R,S)-4-methyl-4-p-cumenyl-2-pentanol] | 69
32 | CCCCc1ccc(C(C)(C)CC(C)O)cc1 (racemic) [Formula 5, (R,S)-4-methyl-4-(4-n-butylphenyl)-2-pentanol] | 69

System: Aspergillus niger
Experiment: agar dilution method, MIC
Assay type: cell-based
Settings: ATCC16404; Aspergillus niger ATCC 16404; Mueller-Hinton agar, aerobic, 48 h at 30° C.; read-out: MIC (minimum inhibitory concentration)
Experimental: as §1, §2, §3, §6, §9, §8, §4, §5

Row | Compound | MIC [µg/mL]
33 | CC(O)CC(C)(C)c1ccccc1 (racemic) [Formula 2, (R,S)-4-methyl-4-phenyl-2-pentanol] | 550
34 | Cc1ccc(C(C)(C)CC(C)O)cc1 (racemic) [Formula 3, (R,S)-4-methyl-4-p-tolyl-2-pentanol] | 550
35 | CC(O)CC(C)(C)c1ccc(C(C)C)cc1 (racemic) [Formula 4, (R,S)-4-methyl-4-p-cumenyl-2-pentanol] | > 1100
36 | CCCCc1ccc(C(C)(C)CC(C)O)cc1 (racemic) [Formula 5, (R,S)-4-methyl-4-(4-n-butylphenyl)-2-pentanol] | > 1100

Same assay, conditions: comparison among substances 2-5

Row | Compound | effectiveness against moulds (in words)
37 | CC(O)CC(C)(C)c1ccccc1 (racemic) [Formula 2, (R,S)-4-methyl-4-phenyl-2-pentanol] | most effective
38 | Cc1ccc(C(C)(C)CC(C)O)cc1 (racemic) [Formula 3, (R,S)-4-methyl-4-p-tolyl-2-pentanol] | most effective

System: Malassezia furfur
Experiment: agar dilution method, MIC
Assay type: cell-based
Settings: DSM6171; Malassezia furfur DSM 6171; Mueller-Hinton agar + 3% Tween 80, aerobic, 72 h at 30° C.; read-out: MIC (minimum inhibitory concentration)
Experimental: as §1, §2, §3, §6, §9, §8, §4, §5

Row | Compound | MIC [µg/mL]
39 | CC(O)CC(C)(C)c1ccccc1 (racemic) [Formula 2, (R,S)-4-methyl-4-phenyl-2-pentanol] | 69
40 | Cc1ccc(C(C)(C)CC(C)O)cc1 (racemic) [Formula 3, (R,S)-4-methyl-4-p-tolyl-2-pentanol] | 69
41 | CC(O)CC(C)(C)c1ccc(C(C)C)cc1 (racemic) [Formula 4, (R,S)-4-methyl-4-p-cumenyl-2-pentanol] | 550
42 | CCCCc1ccc(C(C)(C)CC(C)O)cc1 (racemic) [Formula 5, (R,S)-4-methyl-4-(4-n-butylphenyl)-2-pentanol] | 550

System: Candida albicans
Experiment: agar dilution method, MIC
Assay type: cell-based
Settings: ATCC10231; Candida albicans ATCC 10231; Mueller-Hinton agar, aerobic, 48 h at 30° C.; read-out: MIC (minimum inhibitory concentration)
Experimental: as §1, §2, §3, §6, §9, §8, §4, §5

Row | Compound | MIC [µg/mL]
43 | CC(O)CC(C)(C)c1ccccc1 (racemic) [Formula 2, (R,S)-4-methyl-4-phenyl-2-pentanol] | 1100
44 | Cc1ccc(C(C)(C)CC(C)O)cc1 (racemic) [Formula 3, (R,S)-4-methyl-4-p-tolyl-2-pentanol] | 1100
45 | CC(O)CC(C)(C)c1ccc(C(C)C)cc1 (racemic) [Formula 4, (R,S)-4-methyl-4-p-cumenyl-2-pentanol] | > 1100
46 | CCCCc1ccc(C(C)(C)CC(C)O)cc1 (racemic) [Formula 5, (R,S)-4-methyl-4-(4-n-butylphenyl)-2-pentanol] | > 1100

Same assay, conditions: comparison among substances 2-5

Row | Compound | effectiveness against yeasts such as Candida albicans (in words)
47 | CC(O)CC(C)(C)c1ccccc1 (racemic) [Formula 2, (R,S)-4-methyl-4-phenyl-2-pentanol] | most effective
48 | Cc1ccc(C(C)(C)CC(C)O)cc1 (racemic) [Formula 3, (R,S)-4-methyl-4-p-tolyl-2-pentanol] | most effective

Reference: patent publication US7119123B2, “Antimicrobially active 4-methyl-4-aryl-2-pentanols, their preparation and use” (Symrise GmbH & Co. KG, priority 2004, dated 2006)
